Results on 12 compounds are retold here after ChEMBL document CHEMBL1201862, “PubChem BioAssay data set” (2004).

Series [1] concerns the target T1, Cytochrome P450 1A2 (Homo sapiens, UniProt P05177).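 Further: PubChem cytochrome P450 panel assay, CYP1A2 panel member.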
T1 sequence (P05177 whole entry): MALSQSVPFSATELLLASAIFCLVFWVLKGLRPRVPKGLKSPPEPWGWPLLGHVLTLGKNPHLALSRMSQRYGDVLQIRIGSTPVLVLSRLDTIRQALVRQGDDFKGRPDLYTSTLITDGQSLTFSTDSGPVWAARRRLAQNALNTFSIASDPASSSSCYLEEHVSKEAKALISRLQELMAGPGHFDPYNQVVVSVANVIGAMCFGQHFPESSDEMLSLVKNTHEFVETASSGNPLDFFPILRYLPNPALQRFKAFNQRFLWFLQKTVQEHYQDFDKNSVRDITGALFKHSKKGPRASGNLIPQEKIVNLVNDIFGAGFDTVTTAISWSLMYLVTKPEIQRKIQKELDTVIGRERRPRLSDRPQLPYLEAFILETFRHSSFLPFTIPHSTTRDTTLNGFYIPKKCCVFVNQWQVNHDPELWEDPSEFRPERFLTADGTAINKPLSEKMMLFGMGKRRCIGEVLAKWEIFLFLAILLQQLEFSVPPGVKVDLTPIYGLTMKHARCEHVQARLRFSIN

The target in series [2] is Cytochrome P450 2C9 (Homo sapiens, UniProt P11712).
The target in series [3] is Cytochrome P450 2C19 (Homo sapiens, UniProt P33261). Description: Cytochrome panel assay with activity outcomes. Panel member name: p450-cyp2c19 Compounds with AC50 equal or less than 10 uM are considered active. In kind it is functional.
For series [4], the target named is T2, Cannabinoid receptor 2 (Homo sapiens, UniProt P34972). The experiment in a line: SAR analysis of agonists of the Cannabinoid Receptor 2 using an Image-Based Assay - Set 3. [Related pubchem assays (depositor defined):AID2013, AID2026]. In kind it is functional.
The target in series [5] is T3, Cannabinoid receptor 1 (Homo sapiens, UniProt P21554). The experiment in a line: SAR analysis of agonists of the Cannabinoid Receptor 1 using an Image-Based Assay - Set 4. [Related pubchem assays (depositor defined):AID2013, AID2026]. In kind it is functional.
Series [6] deals with G-protein coupled receptor 55 (Homo sapiens, UniProt Q9Y2T6). The experiment in a line: SAR Analysis of Selective Antagonists of GPR55 using an Image-Based Assay - Set 4. [Related pubchem assays (depositor defined):AID2013, AID2026]. Format: functional.
The target in series [7] is T3, Cannabinoid receptor 1. Description: SAR analysis of antagonists of the Cannabinoid Receptor 1 using an Image-Based Assay - Set 4. [Related pubchem assays (depositor defined):AID2013, AID2026]. In kind it is functional.
The target in series [8] is T4, G-protein coupled receptor 35 (Homo sapiens, UniProt Q9HC97). Description: SAR analysis of Agonists of the GPR35 Receptor using an Image-Based Assay - Set 4. [Related pubchem assays (depositor defined):AID2013, AID2026]. In kind it is functional.
The target of series [9] is T4, G-protein coupled receptor 35. The experiment in a line: SAR analysis of Antagonists of the GPR35 Receptor using an Image-Based Assay - Set 6. [Related pubchem assays (depositor defined):AID2013, AID2026]. Format: functional.
In series [10] the target is T2, Cannabinoid receptor 2. The experiment in a line: SAR analysis of antagonists of the Cannabinoid Receptor 2 using an Image-Based Assay - Set 3. [Related pubchem assays (depositor defined):AID2013, AID2026]. Format: functional.
For series [11], the target named is T5, Kappa-type opioid receptor (Homo sapiens, UniProt P41145). In kind it is functional.
In series [12] the target is T6, Delta-type opioid receptor (Homo sapiens, UniProt P41143). The experiment in a line: HTS Image-Based Screen for Agonists of the DOR Receptor. [Related pubchem assays (depositor defined):AID1777, AID1786, AID2133]. Format: functional.
Series [13] deals with T7, Beta-galactosidase (Escherichia coli, UniProt Q8VNN2). Format: functional.
In series [14] the target is T6, Delta-type opioid receptor. Description: HTS Image-Based Screen for Antagonists of the DOR Receptor. [Related pubchem assays (depositor defined):AID1777, AID1785, AID1786, AID2133]. In kind it is functional.
Series [15] has as its target T5, Kappa-type opioid receptor. In kind it is functional. The source holds these as a separate data set.
The target of series [16] is Mu-type opioid receptor (Homo sapiens, UniProt P35372). The experiment in a line: HTS Image-Based Screen for Agonists of the MOR Receptor. [Related pubchem assays (depositor defined):AID1777, AID1785, AID1786, AID2133]. In kind it is functional.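 Further: imaging of beta-arrestin GFP recruitment into spots after receptor activation.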
The target of series [17] is Lysine-specific demethylase 4C (Homo sapiens, UniProt Q9H3R0). Description: GASC-1 (JMJD2C) histone demethylase inhibitors, dose response, biochemical, DELFIA europium, cherry-picked samples (AID 488835). Format: functional.
Series [18] addresses Nonstructural protein 1 (Influenza A virus, UniProt Q194T2). Format: functional, Influenza A virus (A/California/07/2009(H1N1)).
Series [19] in a line: NIH-3T3 fibroblast cytotoxicity, dose response, cytotoxicity control, cell-based, fluorescence, Alamar Blue, secondary assay (AID 2327).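 Further: NIH-3T3 mouse fibroblasts cultured with fluconazole at 8 µg/mL.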 In kind it is functional. On the technique in general: Alamar Blue is a resazurin reagent that responds to reducing activity.
In series [20] the target is T8, Voltage-gated N-type calcium channel alpha-1B subunit/Amyloid beta A4 precursor protein-binding family A member 1 (Homo sapiens, UniProt Q00975+Q02410). The experiment in a line: disruptors of Mint-PDZ/N-type channel peptide interaction – biochemical, HTRF, set 2, SAR follow-up (AID 434980). In kind it is functional. For orientation: TR-FRET usually uses a lanthanide donor and a delayed reading to cut background.

Series [21] deals with SUMO E1/E2 (Homo sapiens, UniProt P63279+Q9UBE0+Q9UBT2). Description: SAR analysis of SUMOylation using HTRF in an in-Vitro dose response assay. [Related pubchem assays (depositor defined):AID2006, AID2011, AID2018, AID2069, AID2658]. Format: functional.
In series [22] the target is T8, Voltage-gated N-type calcium channel alpha-1B subunit/Amyloid beta A4 precursor protein-binding family A member 1. Description: disruptors of Mint-PDZ/N-type channel peptide interaction – biochemical, HTRF, SAR follow-up (AID 2489). Format: functional.
For series [23], the target named is T9, Mannose-6-phosphate isomerase (Homo sapiens, UniProt P34949).
T9 sequence (P34949 whole entry): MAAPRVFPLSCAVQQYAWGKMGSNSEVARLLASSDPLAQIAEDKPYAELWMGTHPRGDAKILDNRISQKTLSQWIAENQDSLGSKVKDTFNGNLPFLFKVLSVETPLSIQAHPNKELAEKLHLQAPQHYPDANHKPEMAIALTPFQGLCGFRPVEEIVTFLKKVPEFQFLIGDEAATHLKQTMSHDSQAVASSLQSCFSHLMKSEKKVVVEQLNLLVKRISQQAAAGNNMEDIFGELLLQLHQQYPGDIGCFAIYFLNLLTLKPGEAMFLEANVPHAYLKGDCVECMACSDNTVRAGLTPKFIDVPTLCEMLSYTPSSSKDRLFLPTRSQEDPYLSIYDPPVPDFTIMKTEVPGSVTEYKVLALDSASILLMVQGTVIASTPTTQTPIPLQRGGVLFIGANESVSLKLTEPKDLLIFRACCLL
Description: PMI enzyme inhibitors, confirmation, biochemical, fluorescence intensity (AID 1535).

Series [24] has as its target Phosphomannomutase 2 (Homo sapiens, UniProt O15305). The experiment in a line: Counter screen SAR assay for PMM2 inhibitors via a fluorescence intensity assay. [Related pubchem assays (depositor defined):AID1545, AID1574].
Series [25] can be described thus: cytotoxicity in MIN6 insulinoma cells, dose response, cytotoxicity control, cell-based, mouse insulinoma (AID 2122).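 Further: confirmatory high-throughput counterscreen run to flag cytotoxic compounds; mouse MIN-6 beta cells carrying an insulin promoter eGFP reporter.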 In kind it is functional.
Series [26] is described as follows: insulin promoter down-regulators in MIN6 cells, imaging, high-content screening, mouse beta cells (AID 1628). Format: functional.
Series [27] deals with Glyceraldehyde-3-phosphate dehydrogenase (Homo sapiens, UniProt P04406).
Series [28] can be described thus: inhibitors of intracellular T. cruzi replication, confirmation, NIH3T3 host cells, beta-gal luminescence (AID 2044).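 Further: intracellular parasites grown in NIH/3T3 mouse fibroblasts as host cells; luminescent beta-galactosidase reporter signal from transgenic T. cruzi replicating inside host cells; inhibitors lower the luminescence signal.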 Format: functional, cell-based.
Series [29] relates to A-375. Description: A375 melanoma cell viability reduction, dose response, counter-screen for MITF modulator project, cherry-pick samples, set 2 (AID 540335). Conditions: Homo sapiens. Format: functional, cell-based. (In general: The purpose of a counterscreen is to sort out artefacts and off-target activity.)
Series [30] deals with T7, Beta-galactosidase. The experiment in a line: beta-galactosidase enzyme inhibitors and activators, dose response, artefact control for CCR6 antagonist project, biochemical, E. coli enzyme, set 3 (AID 504712). Format: functional.
Series [31] has as its target T10, Microphthalmia-associated transcription factor (Homo sapiens, UniProt O75030).
T10 sequence (O75030 whole entry): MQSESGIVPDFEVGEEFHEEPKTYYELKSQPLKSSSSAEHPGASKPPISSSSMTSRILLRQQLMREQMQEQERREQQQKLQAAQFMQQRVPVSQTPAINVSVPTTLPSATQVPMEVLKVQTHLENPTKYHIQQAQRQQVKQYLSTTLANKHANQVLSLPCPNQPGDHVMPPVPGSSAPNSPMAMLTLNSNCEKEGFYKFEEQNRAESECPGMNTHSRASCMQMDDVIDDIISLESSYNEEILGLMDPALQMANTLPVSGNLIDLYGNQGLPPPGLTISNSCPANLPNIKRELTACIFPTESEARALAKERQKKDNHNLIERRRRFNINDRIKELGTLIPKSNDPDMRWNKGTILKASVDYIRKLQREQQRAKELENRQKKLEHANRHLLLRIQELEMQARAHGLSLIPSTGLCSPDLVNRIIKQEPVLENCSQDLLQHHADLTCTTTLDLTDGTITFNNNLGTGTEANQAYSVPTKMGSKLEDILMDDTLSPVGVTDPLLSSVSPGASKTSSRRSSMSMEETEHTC
The experiment in a line: TRPM1 promoter luciferase signal decrease, dose response, MITF inhibitor project, cell-based, SK-MEL-5, cherry-picked, set 3 (AID 493073).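 Further: SK-MEL-5 melanoma cells with luciferase driven by the MITF target TRPM1 promoter.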 In kind it is functional.

Series [32] in a line: cytotoxicity toward NIH3T3 fibroblasts, dose response, counter-screen, cell-based, ATP luminescence, mouse fibroblasts (AID 2010).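 Further: cells exposed to compound for about 90 hours before reading.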 In kind it is functional.
Series [33] addresses Cytochrome P450 2D6 (Homo sapiens, UniProt P10635).
The subject of series [34] is A-375. Description: MITF: Counter assay: A375 proliferation Measured in Cell-Based System Using Plate Reader - 2084-03_Inhibitor_Dose_DryPowder_Activity. [Related pubchem assays (depositor defined):AID488944]. In kind it is functional. As to conditions: Homo sapiens.

The source made the active and inactive calls.

T2 sequence (P34972 whole entry): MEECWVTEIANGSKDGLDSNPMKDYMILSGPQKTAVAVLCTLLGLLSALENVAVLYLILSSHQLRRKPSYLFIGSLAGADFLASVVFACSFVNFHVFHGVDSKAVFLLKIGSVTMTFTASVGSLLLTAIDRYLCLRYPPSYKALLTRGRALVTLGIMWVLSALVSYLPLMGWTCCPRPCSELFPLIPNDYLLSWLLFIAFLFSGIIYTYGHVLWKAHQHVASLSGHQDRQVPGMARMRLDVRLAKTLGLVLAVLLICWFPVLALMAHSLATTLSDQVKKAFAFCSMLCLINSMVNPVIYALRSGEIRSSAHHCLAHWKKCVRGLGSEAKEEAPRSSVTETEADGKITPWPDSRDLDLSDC
T3 sequence (P21554 whole entry): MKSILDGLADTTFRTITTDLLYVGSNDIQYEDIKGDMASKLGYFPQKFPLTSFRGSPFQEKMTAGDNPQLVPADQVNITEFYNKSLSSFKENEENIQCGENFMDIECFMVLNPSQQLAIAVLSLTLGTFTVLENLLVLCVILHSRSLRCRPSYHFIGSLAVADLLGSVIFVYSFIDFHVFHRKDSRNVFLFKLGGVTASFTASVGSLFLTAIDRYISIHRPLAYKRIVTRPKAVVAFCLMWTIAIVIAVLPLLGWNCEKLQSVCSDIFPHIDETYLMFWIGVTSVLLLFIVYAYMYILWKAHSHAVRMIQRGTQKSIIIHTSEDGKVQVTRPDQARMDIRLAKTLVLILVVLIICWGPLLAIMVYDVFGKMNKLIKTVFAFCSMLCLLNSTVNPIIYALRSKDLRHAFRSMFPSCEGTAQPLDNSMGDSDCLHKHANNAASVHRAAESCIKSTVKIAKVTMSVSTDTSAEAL
T4 sequence (Q9HC97 whole entry): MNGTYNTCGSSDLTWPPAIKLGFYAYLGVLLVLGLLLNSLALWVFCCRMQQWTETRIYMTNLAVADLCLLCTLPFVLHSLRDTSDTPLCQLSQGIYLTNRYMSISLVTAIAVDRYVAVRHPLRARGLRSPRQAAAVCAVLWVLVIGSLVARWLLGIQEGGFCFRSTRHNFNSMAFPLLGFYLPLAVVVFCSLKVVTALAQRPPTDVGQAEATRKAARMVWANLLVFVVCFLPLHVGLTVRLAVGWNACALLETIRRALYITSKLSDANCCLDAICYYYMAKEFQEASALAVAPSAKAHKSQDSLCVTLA
T7 sequence (Q8VNN2 whole entry): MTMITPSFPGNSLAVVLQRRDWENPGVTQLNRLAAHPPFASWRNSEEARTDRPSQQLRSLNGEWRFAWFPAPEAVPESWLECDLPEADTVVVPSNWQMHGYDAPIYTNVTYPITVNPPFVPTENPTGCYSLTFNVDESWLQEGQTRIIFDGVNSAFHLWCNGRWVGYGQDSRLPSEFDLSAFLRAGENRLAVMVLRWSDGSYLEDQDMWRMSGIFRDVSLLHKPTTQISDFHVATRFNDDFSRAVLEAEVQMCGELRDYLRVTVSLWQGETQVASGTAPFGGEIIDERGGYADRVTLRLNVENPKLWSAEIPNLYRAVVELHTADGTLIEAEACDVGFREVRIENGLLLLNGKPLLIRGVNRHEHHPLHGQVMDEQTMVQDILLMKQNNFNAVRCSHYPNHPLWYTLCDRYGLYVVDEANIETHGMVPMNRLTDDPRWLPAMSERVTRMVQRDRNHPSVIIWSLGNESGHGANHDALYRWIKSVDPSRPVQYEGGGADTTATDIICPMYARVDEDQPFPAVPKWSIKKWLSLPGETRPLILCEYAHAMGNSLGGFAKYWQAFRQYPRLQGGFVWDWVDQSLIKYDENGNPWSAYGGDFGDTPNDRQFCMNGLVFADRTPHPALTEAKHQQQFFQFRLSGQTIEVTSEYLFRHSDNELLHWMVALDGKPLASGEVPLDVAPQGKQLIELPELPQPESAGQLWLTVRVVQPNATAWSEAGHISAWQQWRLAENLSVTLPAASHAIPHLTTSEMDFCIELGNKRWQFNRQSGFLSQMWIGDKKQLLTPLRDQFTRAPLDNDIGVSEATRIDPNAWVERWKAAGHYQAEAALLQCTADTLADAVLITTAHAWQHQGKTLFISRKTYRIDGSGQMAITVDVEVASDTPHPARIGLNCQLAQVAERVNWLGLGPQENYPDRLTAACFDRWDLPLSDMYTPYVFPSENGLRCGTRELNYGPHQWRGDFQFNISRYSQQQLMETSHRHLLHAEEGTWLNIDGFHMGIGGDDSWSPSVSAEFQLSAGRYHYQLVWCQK
Chain of G-protein coupled receptor 55 (Q9Y2T6 whole entry): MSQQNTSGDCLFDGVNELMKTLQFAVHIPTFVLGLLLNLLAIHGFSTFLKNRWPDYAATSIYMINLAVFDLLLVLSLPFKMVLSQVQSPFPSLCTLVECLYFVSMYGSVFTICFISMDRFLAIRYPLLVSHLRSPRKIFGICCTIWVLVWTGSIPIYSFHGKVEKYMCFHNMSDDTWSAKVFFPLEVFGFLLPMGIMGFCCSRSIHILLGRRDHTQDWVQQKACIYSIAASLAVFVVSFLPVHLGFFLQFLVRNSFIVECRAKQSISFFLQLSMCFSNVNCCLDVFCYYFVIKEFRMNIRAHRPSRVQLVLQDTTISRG
Chain of SUMO E1/E2 (Q9UBE0 whole entry): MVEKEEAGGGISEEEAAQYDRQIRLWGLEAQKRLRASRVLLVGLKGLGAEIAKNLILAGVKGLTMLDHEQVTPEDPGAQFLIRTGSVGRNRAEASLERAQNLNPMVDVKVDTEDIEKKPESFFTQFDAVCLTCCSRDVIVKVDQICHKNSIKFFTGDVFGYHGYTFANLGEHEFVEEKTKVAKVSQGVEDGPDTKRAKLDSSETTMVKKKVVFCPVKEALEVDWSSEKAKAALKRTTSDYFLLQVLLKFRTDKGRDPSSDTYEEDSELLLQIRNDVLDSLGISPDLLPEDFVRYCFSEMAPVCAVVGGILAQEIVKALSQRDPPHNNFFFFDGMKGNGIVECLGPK
Chain of SUMO E1/E2 (Q9UBT2 whole entry): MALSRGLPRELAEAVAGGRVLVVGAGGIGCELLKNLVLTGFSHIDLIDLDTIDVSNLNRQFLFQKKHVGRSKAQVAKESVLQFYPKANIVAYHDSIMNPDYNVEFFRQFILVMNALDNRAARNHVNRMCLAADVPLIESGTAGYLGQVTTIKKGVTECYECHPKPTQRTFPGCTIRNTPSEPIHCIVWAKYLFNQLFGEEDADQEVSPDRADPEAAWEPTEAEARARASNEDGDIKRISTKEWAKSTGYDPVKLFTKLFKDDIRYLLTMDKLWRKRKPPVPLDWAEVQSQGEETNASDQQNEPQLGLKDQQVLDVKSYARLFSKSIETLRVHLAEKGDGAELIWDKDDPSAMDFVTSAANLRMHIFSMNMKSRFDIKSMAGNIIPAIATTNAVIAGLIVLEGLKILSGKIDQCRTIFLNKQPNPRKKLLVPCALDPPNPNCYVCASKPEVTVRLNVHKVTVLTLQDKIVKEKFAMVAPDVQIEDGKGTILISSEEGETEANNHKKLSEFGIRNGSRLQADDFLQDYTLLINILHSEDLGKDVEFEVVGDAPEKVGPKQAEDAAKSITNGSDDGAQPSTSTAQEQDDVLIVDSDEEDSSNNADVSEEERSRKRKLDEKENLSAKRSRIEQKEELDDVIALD
Chain of SUMO E1/E2 (P63279 whole entry): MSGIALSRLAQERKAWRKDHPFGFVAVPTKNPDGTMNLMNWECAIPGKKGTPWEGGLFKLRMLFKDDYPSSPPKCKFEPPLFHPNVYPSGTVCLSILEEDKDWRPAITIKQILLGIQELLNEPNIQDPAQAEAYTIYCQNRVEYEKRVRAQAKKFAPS
Chain of Cytochrome P450 2C9 (P11712 whole entry): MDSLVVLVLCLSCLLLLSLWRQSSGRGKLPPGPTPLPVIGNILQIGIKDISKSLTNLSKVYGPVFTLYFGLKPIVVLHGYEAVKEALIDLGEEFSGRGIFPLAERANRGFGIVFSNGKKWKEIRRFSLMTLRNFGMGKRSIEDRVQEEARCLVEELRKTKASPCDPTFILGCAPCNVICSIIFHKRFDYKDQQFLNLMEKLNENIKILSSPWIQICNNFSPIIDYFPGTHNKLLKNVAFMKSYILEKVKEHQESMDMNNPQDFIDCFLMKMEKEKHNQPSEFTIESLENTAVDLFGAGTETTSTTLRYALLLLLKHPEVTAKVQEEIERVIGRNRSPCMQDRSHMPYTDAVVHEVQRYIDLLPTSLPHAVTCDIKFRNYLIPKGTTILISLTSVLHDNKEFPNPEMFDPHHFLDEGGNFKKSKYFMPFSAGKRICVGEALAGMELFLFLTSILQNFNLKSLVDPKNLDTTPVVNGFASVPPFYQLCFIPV
T5 sequence (P41145 whole entry): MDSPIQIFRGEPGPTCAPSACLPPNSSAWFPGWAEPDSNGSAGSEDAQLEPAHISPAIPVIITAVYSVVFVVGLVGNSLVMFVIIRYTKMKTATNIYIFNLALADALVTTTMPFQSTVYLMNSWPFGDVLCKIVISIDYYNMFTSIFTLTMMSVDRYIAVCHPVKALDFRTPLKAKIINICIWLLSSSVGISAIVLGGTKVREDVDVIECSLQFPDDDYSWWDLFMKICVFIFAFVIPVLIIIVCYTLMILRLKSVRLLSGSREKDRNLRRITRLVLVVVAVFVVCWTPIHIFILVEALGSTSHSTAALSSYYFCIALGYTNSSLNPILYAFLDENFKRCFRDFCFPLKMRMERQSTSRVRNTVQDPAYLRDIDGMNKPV
T6 sequence (P41143 whole entry): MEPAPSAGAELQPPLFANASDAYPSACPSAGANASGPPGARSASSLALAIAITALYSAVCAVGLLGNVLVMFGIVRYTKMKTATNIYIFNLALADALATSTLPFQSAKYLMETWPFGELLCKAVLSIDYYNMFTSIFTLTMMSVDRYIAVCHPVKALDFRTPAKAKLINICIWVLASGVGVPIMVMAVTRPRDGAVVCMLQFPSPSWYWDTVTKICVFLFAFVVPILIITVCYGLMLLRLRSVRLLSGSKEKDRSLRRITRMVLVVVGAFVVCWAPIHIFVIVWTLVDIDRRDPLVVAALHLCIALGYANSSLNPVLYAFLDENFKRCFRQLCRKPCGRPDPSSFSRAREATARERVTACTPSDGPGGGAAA

One may read the AC50 as the concentration giving half of the maximal activity seen. As for `CS(=O)(=O)N1CCC2(CCN(c3cccc(-c4ccccc4)c3)CC2)CC1`, the AC50 entry in [1], in series [2] and in [3] was “inconclusive” throughout.
In general, EC50 refers to the concentration needed to bring the measured effect to its halfway point. The IC50 is the concentration needed to halve the response being measured. Regarding `Cc1nnc(-c2cccc(Br)c2)c2cn(-c3ccccc3)nc12`, the EC50 in series [4], in series [5] and in [8] was > 32 µM (inactive) throughout. Besides, the half-maximal inhibitory concentration (IC50) in [6] is 3.95 µM (active); in [7] it was 1.68 µM (active); in series [9], > 32 µM (inactive); in [10] it was 10.4 µM (inactive).
For `CCN(CCCNC(=O)C1CCN(S(=O)(=O)N2CCC3(CC2)OCCO3)CC1)c1ccccc1`, the IC50 in series [11] is 9.46 µM (active); in [14], > 32 µM (inactive); in [15], 9.69 µM. The values for the EC50 in [12], in series [13] and in series [16] were > 32 µM (inactive), > 31.5 µM (inactive) and > 32 µM (inactive), respectively.
Turning to `Cc1ccc(O)c(NN=C2C(=O)CC(C)(C)CC2=O)c1`, the AC50 in series [17] is 10.5 µM (active). Besides, the IC50 in series [18] is 13.2 µM (active). For the same compound, the EC50 in [19] was > 160 µM (inactive).
On to `COc1ccccc1COC(=O)COC(=O)c1cc(-c2ccco2)nc2ccccc12`, for which the IC50 in [20] was 6.59 µM (active); in series [21] it was 12.9 µM (active); in [22], 9.09 µM (active).
In the case of `O=[N+]([O-])c1ccc(/N=c2/ssnc2Cl)c([N+](=O)[O-])c1`, the IC50 was 3.52 µM (active) in series [23] and 58.4 µM (active) in series [24].
Take `Cn1c2c(c(=O)[nH]c1=O)C(c1cccc(O)c1)C1=C(O)c3ccccc3C1=N2` (stereo not given): the IC50 is 1.92 µM (active) in series [25] and 1.87 µM (active) in series [26].
For `Cc1ccc2nc3c(cc(C(=O)NC4CCCC4)c(=N)n3C3CCCC3)c(=O)n2c1`, the EC50 in series [4], in series [5] and in [8] was > 32 µM (inactive) throughout. Also, the IC50 in series [6] is 8.18 µM (active); in series [7] it was 24.9 µM (inactive); in series [9], > 32 µM (inactive); in [10] it was > 32 µM (inactive).
Turning to `NS(=O)(=O)c1ccc2c(c1)C1C=CCC1C(c1ccc([N+](=O)[O-])cc1)N2` (stereo not given), the IC50 in [21] was > 100 µM (inactive); in series [27], > 100 µM (not active).
As to `CS(=O)(=O)c1ccc([S+]([O-])CC(=O)OCc2ccccc2)c([N+](=O)[O-])c1` (stereo not given), the results for the EC50 in [28] and in series [32] were 3.05 µM (active) and 2.01 µM (active), respectively. Besides, the AC50 in series [29] is 21 µM (active); in [31], 5.46 µM (active). For the same compound, the IC50 in [30] is > 66.6 µM (inactive).
As to `COC(=O)N1CCC[C@@]2(CCN(c3ccncc3)C2)C1`, the AC50 entry in [1], in [33] and in series [2] was “inconclusive” each time.
For the compound `O=C(Nc1ccc(-c2cn3c(n2)SCC3)cc1)c1ccco1`, the AC50 in series [29] and in series [34] was > 35 µM (active) each time.
